From patent US20220409727A1, “Metal Complexes Bearing Bisstyryl-Bipyridine Ligand and Their Use as Photosensitizer Agent in One and Two-Photon Photodynamic Therapy” (Paris Sciences et Lettres, priority 2019, published 2022) come the findings set out here.

The structures appear in SMILES notation. Where two headings read alike, the source gives them in different places.

The nature of series [1]: Luminescence lifetime measurements. The note with it: excitation at 355 nm; for τ/ns air (Lifetime): air saturated CH3CN; for τ/ns degassed (Lifetime): degassed CH3CN. The series is classed as physicochemical. As for the experimental part:
For the determination of the lifetimes, the samples were prepared in an air saturated and in a degassed CH3CN solution with an absorbance of 0.2 at 355 nm. This solution was irradiated in fluorescence quartz cuvettes (width 1 cm) using a NT342B Nd-YAG pumped optical parametric oscillator (Ekspla) at 355 nm. The emission signal was focused and collected at right angle to the excitation pathway and directed to a Princeton Instruments Acton SP-2300i monochromator. As a detector a R928 photomultiplier tube (Hamamatsu) has been used.

The test system of another series is HeLa MCTS. The series is described as follows: (Photo-)cytotoxicity on 3D multicellular tumor spheroids (ATP, CellTiter-Glo 3D). To be noted: for PI (1-Photon): dark vs 1-Photon irradiation (500 nm, 10 J/cm^2); for PI (2-Photon): dark vs 2-Photon irradiation (800 nm, 10 J/cm^2). It is filed as cell-based, human. The method, then: autoclave. The hot emulsion was transferred into wells (50 μL per well) of a 96 cell culture well plate. The plates were exposed for 3 h to UV irradiation to ensure the sterility and allow the agarose solution to cool down. After this time, the agarose was overlayed with a HeLa cell suspension at a density of 3000 cells per well in 150 μL of media. The MCTS were cultivated and maintained at 37° C. in a cell culture incubator at 37° C. with 5% CO2 atmosphere. The culture media was replaced every two days. Within two-three days MCTs were formed from the cell suspension. The formation as well as integrity, diameter and volume of the MCTs was monitored by an Axio Observer Z1 (Carl Zeiss) phase contrast microscope. The volume was calculated using the following formula: V=4/3πr^3. The luminescence images along the z-axis were captured by a one-(λex=458 nm, λem=600-750 nm) or two-photon (λex=800 nm, λem=600-750 nm) excitation in the z-stack mode with a an LSM 880 (Carl Zeiss) laser scanning confocal microscope equipped with Argon and a Coherent Chameleon 2-Photon laser and a GaAsP detector.
The cytotoxicity of the compounds in 3D multicellular tumor spheroids (MCTS) was assessed by measurement of the ATP concentration. MCTS were treated with increasing concentrations of the compound (2% DMSO, v %) by replacing 50% of the media with drug supplemented media and incubation for 12 h. After this time, the MCTS were divided in three identical groups. The first group was strictly kept in the dark. The second group was exposed to a one-photon irradiation (500 nm, 10 J/cm^2) using a LED and the third group was exposed to a two-photon irradiation (800 nm, 10 J/cm^2) with a section interval of 5 μm using a LSM 880 (Carl Zeiss, Germany) laser scanning confocal microscope equipped with a Coherent Chameleon 2-Photon laser. After the irradiation, all groups were incubated additional 48 h. The ATP concertation was measured using a CellTiter-Glo 3D Cell Viability kit (Promega) by measuring the generated chemiluminescence with an infinite M200 PRO (Tecan) plate reader.

Series [2] has as its system human glioblastoma astrocytoma (U373) cells.
Procedure: The human glioblastoma astrocytoma (U373) cell line was cultured in MEM medium supplemented with 10% FBS, 1% NEAA (non-essential amino-acids) and 1% penicillin/streptomycin. […] The human retinal epithelial cells (RPE-1, non-cancerous cells immortalized with hTERT) were cultured in DMEM-F12 medium supplemented with 10% FBS and 1% penicillin/streptomycin. All cell lines were obtained from the American Type Culture Collection (ATCC) and cultured at 37° C. and 5% CO2. Before an experiment, the cells were passaged three times.
The cytotoxicity of the compounds was assessed by measuring cell viability using a fluorometric resazurin assay. The cultivated cells were seeded in triplicates in 96 well plates with a density of 4000 cells per well in 100 μL of media. After 24 h, the medium was removed and the cells were treated with increasing concentrations of the compound diluted in cell media achieving a total volume of 200 μL. The cells were incubated with the compound for 4 h. After this time, the media was removed and replaced with 200 μL of fresh medium. For the phototoxicity studies, the cells were exposed to light with an Atlas Photonics LUMOS BIO irradiator. Each well was constantly illuminated with either a 480 nm or 540 nm irradiation. During this time, the temperature was maintained constantly at 37° C. The cells were grown in the incubator for additional 44 h. For the determination of the dark cytotoxicity, the cells were not irradiated and after the medium exchange directly incubated for 44 h. After this time, the medium was replaced with fresh medium containing resazurin with a final concentration of 0.2 mg/mL. After 4 h incubation, the amount of the fluorescent product resorufin was determined upon excitation at 540 nm and measurement its emission at 590 nm using a SpectraMax M2 Microplate Reader (Molecular Devices).
The obtained data was analyzed with the GraphPad Prism software.
The nature of series [3]: Singlet oxygen measurement, direct evaluation (1O2 luminescence at 1270 nm). It is filed as physicochemical. As for the experimental part:
The samples were prepared in an air saturated CH3CN or D2O solution with an absorbance of 0.2 at 450 nm. This solution was irradiated in fluorescence quartz cuvettes (width 1 cm) using a mounted M450LP1 LED (Thorlabs) whose irradiation, centered at 450 nm, has been focused with aspheric condenser lenses. The intensity of the irradiation has been varied using a T-Cube LED Driver (Thorlabs) and measured with an optical power and energy meter. The emission signal was focused and collected at right angle to the excitation pathway and directed to a Princeton Instruments Acton SP-2300i monochromator. A longpass glass filter was placed in front of the monochromator entrance slit to cut off light at wavelengths shorter than 850 nm. As a detector an EO-817L IR-sensitive liquid nitrogen cooled germanium diode detector (North Coast Scientific Corp.) has been used. The singlet oxygen luminesce at 1270 nm was measured by recording spectra from 1100 to 1400 nm. For the data analysis, the singlet oxygen luminescence peaks at different irradiation intensities were integrated. The resulting areas were plotted against the percentage of the irradiation intensity and the slope of the linear regression calculated. The absorbance of the sample was corrected with an absorbance correction factor. As reference for the measurement Rose Bengal (Φ=76%) (Kochevar, I. E. and Redmond, R. W., 2000) was used and the singlet oxygen quantum yields were calculated using the following formula:
Φsample=Φreference*(Ssample/Sreference)*(Ireference/Isample)
Φ=singlet oxygen quantum yield, S=slope of the linear regression of the plot of the areas of the singlet oxygen luminescence peaks against the irradiation intensity, I=absorbance correction factor, […] of the irradiation source, A=absorbance of the sample at irradiation wavelength.

A short description of series [4]: Singlet oxygen measurement, indirect evaluation (RNO absorbance). To be noted: indirect. It is filed as physicochemical. As for the experimental part: For the measurement in CH3CN: The samples were prepared in an air-saturated CH3CN solution containing the complex with an absorbance of 0.2 at the irradiation wavelength, N,N-dimethyl-4-nitrosoaniline aniline (RNO, 24 μM) and imidazole (12 mM). For the measurement in PBS buffer: The samples were prepared in an air-saturated PBS solution containing the complex with an absorbance of 0.1 at the irradiation wavelength, N,N-dimethyl-4-nitrosoaniline aniline (RNO, 20 μM) and histidine (10 mM). The samples were irradiated on 96 well plates with an Atlas Photonics LUMOS BIO irradiator for different times. The absorbance of the samples was measured during these time intervals with a SpectraMax M2 Microplate Reader (Molecular Devices). The difference in absorbance (A0−A) at 420 nm for the CH3CN solution or at 440 nm a PBS buffer solution was calculated and plotted against the irradiation times. From the plot the slope of the linear regression was calculated as well as the absorbance correction factor determined. The singlet oxygen quantum yields were calculated using the same formulas as used for the direct evaluation.

Where [5] appears, read: 1-Photon irradiation (500 nm, 10 J/cm^2), read-out: IC50 1-Photon irradiation (500 nm, 10 J/cm^2).
Where [6] appears, read: 2-Photon irradiation (800 nm, 10 J/cm^2, section interval of 5 μm), read-out: IC50 2-Photon irradiation (800 nm, 10 J/cm^2).
Setting [7] is: dark, 12 h incubation, read-out: IC50 dark.

As to `CN(C)c1ccc(/C=C/c2ccnc(-c3cc(/C=C/c4ccc(N(C)C)cc4)ccn3)c2)cc1.CN(C)c1ccc(/C=C/c2ccnc(-c3cc(/C=C/c4ccc(N(C)C)cc4)ccn3)c2)cc1.F[P-](F)(F)(F)(F)F.F[P-](F)(F)(F)(F)F.[Ru+2].c1ccc(-c2ccccn2)nc1` [Compound 4, [Ru(bipy)((E,E′)-4,4′-Bis[p-(N,N-dimethylamino)styryl]-2,2′-bipyridine)2][PF6]2], in series [1], the “τ/ns air (Lifetime)” value is reported as 69 ns and the “τ/ns degassed (Lifetime)” value worked out at 417 ns. Besides, the IC50 in the series with HeLa MCTS (setting [5]) worked out at 78.3 ± 5.1 µM. For the same molecule, the IC50 with HeLa MCTS (setting [6]) is 63 ± 4.2 µM. For the same molecule, in the series with HeLa MCTS, the “PI (1-Photon)” value is more than 1.3 and the “PI (2-Photon)” value is recorded as more than 1.6. Further, the IC50 in the series with HeLa MCTS (setting [7]) is more than 100 µM. This molecule came in with an IC50 in series [2] of 19 ± 2.8 µM. Moreover, the “Singlet oxygen quantum yield, direct 450 nm CH3CN” value in series [3] is 34%. Also, in series [4], the “Singlet oxygen quantum yield, indirect 450 nm CH3CN” value was found to be 40%; the “Singlet oxygen quantum yield, indirect 450 nm PBS” value was determined as 2%; the “Singlet oxygen quantum yield, indirect 540 nm CH3CN” value is 37%; the “Singlet oxygen quantum yield, indirect 540 nm PBS” value is on record as 3%.

On to `COc1ccc(/C=C/c2ccnc(-c3cc(/C=C/c4ccc(OC)cc4)ccn3)c2)cc1.COc1ccc(/C=C/c2ccnc(-c3cc(/C=C/c4ccc(OC)cc4)ccn3)c2)cc1.F[P-](F)(F)(F)(F)F.F[P-](F)(F)(F)(F)F.[Ru+2].c1ccc(-c2ccccn2)nc1` [Compound 5, [Ru(bipy)((E,E′)-4,4′-Bis[p-methoxystyryl]-2,2′-bipyridine)2][PF6]2], for which, in series [1], the “τ/ns air (Lifetime)” value is reported as 36 ns and the “τ/ns degassed (Lifetime)” value was found to be 231 ns. For the same molecule, the IC50 in the series on HeLa MCTS (setting [5]) came to 19.3 ± 2.7 µM. Further, the IC50 in the series with HeLa MCTS (setting [6]) was 13.4 ± 3.9 µM. In the series on HeLa MCTS, the “PI (1-Photon)” value is more than 5.2 and the “PI (2-Photon)” value was more than 7.5. In addition, the IC50 in the series on HeLa MCTS (setting [7]) was more than 100 µM. In series [2], this molecule showed an IC50 of 17.8 ± 3.2 µM. Moreover, the “Singlet oxygen quantum yield, direct 450 nm CH3CN” value in series [3] is 54%. Moreover, in series [4], the “Singlet oxygen quantum yield, indirect 450 nm CH3CN” value came out at 51%; the “Singlet oxygen quantum yield, indirect 450 nm PBS” value turned out to be 8%; the “Singlet oxygen quantum yield, indirect 540 nm CH3CN” value worked out at 46%; the “Singlet oxygen quantum yield, indirect 540 nm PBS” value came to 6%.

In the case of `CN(C)c1ccc(/C=C/c2ccnc(-c3cc(/C=C/c4ccc(N(C)C)cc4)ccn3)c2)cc1.F[P-](F)(F)(F)(F)F.F[P-](F)(F)(F)(F)F.[Ru+2].c1ccc(-c2ccccn2)nc1.c1ccc(-c2ccccn2)nc1` [Compound 6, [Ru(bipy)2((E,E′)-4,4′-Bis[p-(N,N-dimethylamino)styryl]-2,2′-bipyridine)][PF6]2], in series [1], the “τ/ns air (Lifetime)” value is listed as 54 ns and the “τ/ns degassed (Lifetime)” value was 405 ns. Besides, the IC50 with HeLa MCTS (setting [5]) came to 33.8 ± 3.4 µM. Also, in the series with HeLa MCTS (setting [6]), the IC50 came to 26.5 ± 2.9 µM. Also, in the series on HeLa MCTS, the “PI (1-Photon)” value is more than 8.9 and the “PI (2-Photon)” value is listed as more than 11.3. The IC50 in the series with HeLa MCTS (setting [7]) is more than 300 µM. Moreover, the IC50 in series [2] was determined as 10.7 ± 1.9 µM. Further, the “Singlet oxygen quantum yield, direct 450 nm CH3CN” value in series [3] is listed as 46%. For the same molecule, in series [4], the “Singlet oxygen quantum yield, indirect 450 nm CH3CN” value turned out to be 53%; the “Singlet oxygen quantum yield, indirect 450 nm PBS” value was 2%; the “Singlet oxygen quantum yield, indirect 540 nm CH3CN” value is 38%; the “Singlet oxygen quantum yield, indirect 540 nm PBS” value amounted to 2%.

Turning to `CN(C)c1ccc(/C=C/c2ccnc(-c3cc(/C=C/c4ccc(N(C)C)cc4)ccn3)c2)cc1.F[P-](F)(F)(F)(F)F.F[P-](F)(F)(F)(F)F.[Ru+2].c1cnc2c(c1)ccc1cccnc12.c1cnc2c(c1)ccc1cccnc12` [Compound 8, [Ru(phen)2((E,E′)-4,4′-Bis[p-(N,N-dimethylamino)styryl]-2,2′-bipyridine)][PF6]2], in series [1], the “τ/ns air (Lifetime)” value came out at 136 ns and the “τ/ns degassed (Lifetime)” value was found to be 334 ns. The IC50 in the series on HeLa MCTS (setting [5]) turned out to be 32.6 ± 2.5 µM. In the series with HeLa MCTS (setting [6]), the IC50 turned out to be 27.8 ± 3.1 µM. For the same molecule, in the series with HeLa MCTS, the “PI (1-Photon)” value is on record as more than 9.2 and the “PI (2-Photon)” value is given as more than 10.8. Also, in the series with HeLa MCTS (setting [7]), the IC50 was more than 300 µM. This molecule gave an IC50 in series [2] of 13.3 ± 2.4 µM. Also, the “Singlet oxygen quantum yield, direct 450 nm CH3CN” value in series [3] came out at 59%. For the same molecule, in series [4], the “Singlet oxygen quantum yield, indirect 450 nm CH3CN” value turned out to be 62%; the “Singlet oxygen quantum yield, indirect 450 nm PBS” value was found to be 3%; the “Singlet oxygen quantum yield, indirect 540 nm CH3CN” value was 57%; the “Singlet oxygen quantum yield, indirect 540 nm PBS” value stood at 2%.

As to `COc1ccc(/C=C/c2ccnc(-c3cc(/C=C/c4ccc(OC)cc4)ccn3)c2)cc1.F[P-](F)(F)(F)(F)F.F[P-](F)(F)(F)(F)F.[Ru+2].c1cnc2c(c1)ccc1cccnc12.c1cnc2c(c1)ccc1cccnc12` [Compound 9, [Ru(phen)2((E,E′)-4,4′-Bis[p-methoxystyryl]-2,2′-bipyridine)][PF6]2], in series [1], the “τ/ns air (Lifetime)” value is 193 ns and the “τ/ns degassed (Lifetime)” value was determined as 669 ns. In addition, the IC50 in the series on HeLa MCTS (setting [5]) turned out to be 7.5 ± 0.2 µM. Further, the “phototoxicity in HeLa MCTS” value in the series with HeLa MCTS (1 Photon and 2 Photons irradiation, compared with compounds 4-6, 8, 10) is given as “much higher phototoxicity”. Besides, the IC50 in the series on HeLa MCTS (setting [6]) worked out at 1.2 ± 0.3 µM. Besides, in the series on HeLa MCTS, the “PI (1-Photon)” value is on record as more than 40.0 and the “PI (2-Photon)” value was more than 250.0. Besides, in the series with HeLa MCTS (setting [7]), the IC50 is more than 300 µM. Besides, the IC50 in series [2] turned out to be 2.1 ± 0.7 µM. For the same molecule, in series [3], the “Singlet oxygen quantum yield, direct 450 nm CH3CN” value was 75%. In addition, in series [4], the “Singlet oxygen quantum yield, indirect 450 nm CH3CN” value stood at 82%; the “Singlet oxygen quantum yield, indirect 450 nm PBS” value worked out at 9%; the “Singlet oxygen quantum yield, indirect 540 nm CH3CN” value is reported as 79%; the “Singlet oxygen quantum yield, indirect 540 nm PBS” value worked out at 8%.
